Results reported in PMC10759609, “A novel PDPN antagonist peptide CY12-RP2 inhibits melanoma growth via Wnt/β-catenin and modulates the immune cells” (Journal of Experimental & Clinical Cancer Research : CR, 2024).
Peptide text beside a SMILES is read from it.

Legend:
A375 cellular spheroid = test: 3D spheroid diameter, A375; assay type: cell-based; conditions: A375 spheroids; 0, 50, 100, 200 μM, 5 days
Method: (§1) A375 and A875 cells were collected and suspended in Matrigel (Corning) with a density of 1.0 × 10^7 cells per mL. 3D spheroids were fabricate using cell-processing system that have two pumps. One pump was loaded with Matrigel and another with fluorocarbon oil (3 M NOVEC, HFE-7000). The flow rate of Matrigel was 20 μL/min and the fluorocarbon oil rate was 30 μL/min. The 3D spheroids were incubated at 37 °C with 5% CO2 after printing. Culturing medium was DMEM medium supplemented with 10% FBS, and 100 IU of penicillin and […] streptomycin. The medium was changed every 3 days. Afterward, the 3D spheroids were harvested for drug analysis.
(§2) Prepared melanoma cells spheroids were plated in 48-well plates. Following incubation for 3 days, the spheroids were exposed to different concentrations (0, 50, 100 and 200 μM) of CY12-RP2, and changes in spheroid diameter were detected after 5 days of treatment. Additionally, melanoma cell spheroids were treated with various concentrations of CY12-RP2 as described previously, and after 72 h, the spheroids were stained for immunofluorescence with caspase 3 primary antibody. The specific experimental procedures refer to the following immunofluorescence analysis. Additionally, we co-cultured peptide-stimulated PBMC with spheroids to determine the tumor-killing ability of activated PBMC.

[1] = tested on: B16F10-Luc lung metastasis; assay type: in vivo, BALB/c mice; conditions: 25 and 100 mg/kg i.v. every two days, 15 days
Method: For pulmonary metastasis assays, 6- to 8-week-old female BALB/c mice were administered with 5 × 10^5 B16F10-Luc cells via tail vein to establish an experimental pulmonary metastasis model of melanoma. CY12-RP2 was administered to the mice intravenously at high and low doses (25 mg/kg and 100 mg/kg) every two days, and the mice were sacrificed after 15 days of treatment. Pulmonary metastases were evaluated using bioluminescence imaging on the 2nd, 5th, 10th, 15th and 20th day after B16F10-Luc cells injection. Subsequently, the BALB/c mice were sacrificed, and the organs including the heart, liver, spleen, lung, and kidney were collected and imaged for evaluation of micrometastases. The xenografts and organs were kept in a 4% paraformaldehyde solution for subsequent histological assays.

[2] = tested on: liver, heart, spleen, lung and kidney; conditions: mouse, in vivo
Method: For histopathological analysis, after BALB/c nude mice were sacrificed, organs (heart, liver, spleen, lung, and kidney) were collected and fixed in 4% paraformaldehyde for 24 h at RT. The fixed organs were then dehydrated and inserted in paraffin, and prepared in 2 µm sections. The prepared sections and experimental procedures were routinely carried out by Servicebio company.

PDPN in A375 cells = test: Immunofluorescence binding/co-localization with PDPN, A375; assay type: cell-based; conditions: 5 μM, 10 h, 37 ℃
Method: Immunofluorescence analysis was used for antigen localization and quantification. For PDPN immunofluorescence staining, melanoma cells (A375, A875) were seeded in coverslips, cultured for 24 h, and fixed using 4% paraformaldehyde for 15 min at room temperature (RT). The cells were then permeabilized with 0.2% Triton X-100 in PBS for 10 min. Cells were blocked using 1% bovine serum albumin (BSA) in PBS for 30 min at RT, and incubated with the primary antibody overnight at 4 ℃. Afterwards, cells were washed three times with PBS containing 0.01% Triton X-100 for 5 min, and incubated with Alexa Fluor 568–conjugated secondary antibodies at RT for 1 h. Lastly, the nuclei were dyed with 4’,6-diamidino-2-phenylindole (DAPI) for 5 min at RT, and the slides were imaged using a NIKON laser scanning confocal microscope. To further verify the specificity binding ability of CY12-RP2 with PDPN, immunofluorescence was detected for analysis in melanoma cells. Briefly, A375 or A875 cells were incubated with CY12-RP2 at a concentration of 5 μM for 10 h at 37 ℃, and then washed with DMEM to remove the unbound peptide. The anti-PDPN primary antibody was then incubated for 4 h at RT. Further experimental procedures were performed as described above. […]

A875 cellular spheroids = test: 3D spheroid diameter, A875; assay type: cell-based; conditions: only at 200 μM, 5 days
Method: as §1, §2

[3] = tested on: A375 xenograft tumor cells; test: TUNEL immunofluorescence of xenograft tumors; assay type: in vivo, BALB/c nude mice
Method: Fig. S4: The inhibition of cells metastasis and invasion by CY12-RP2 can be […]
(A, B) The inhibition of CY12-RP2 on the migration capacity of melanoma cell lines was reversed by SKL2001 (A). Statistical analysis was performed to determine the migrated distance (B). The power field scale bar, 100 μm. (C, D) Effect of CY12-RP2 on the invasive ability of melanoma cell lines were reversed by SKL2001 (C).
Statistical analysis was performed to count the invaded cells (D). The power field scale bar, 100 μm. (E) Western blot assay was also performed to detect the proteins related to EMT and Wnt/β-catenin signaling pathway, including N-cadherin, Vimentin, snail, Dvl2, Phospho-β-catenin-S675, β-catenin, Phospho-GSK3β-Ser9 and GSK3β by CY12-RP2 with or without SKL2001 (50 μM). Data are presented as mean ± SD. *p < […]
Fig. S5: Effects and toxicity of CY12-RP2 in vivo
(A) TUNEL analysis of apoptosis was conducted on orthotopic xenografts tumor sections using fluorescence staining. The power field scale bar, 100 μm. (B) Fluorescence staining of Ki67 was carried out on orthotopic xenograft tumor sections.
The power field scale bar, 100 μm. (C) Serum His-CY12-RP2 levels of the orthotopic xenografts mice treated by various dosage of CY12-RP2 were measured by His-ELISA kit. […]
kit. (E) Serum ALT, AST, TG, and γ-GT levels of the orthotopic xenografts model were measured by ELISA. […]

## CC(C)C[C@H](NC(=O)[C@H](Cc1ccc(O)cc1)NC(=O)[C@@H](N)[C@@H](C)O)C(=O)N[C@@H](CS)C(=O)N[C@H](C(=O)N[C@@H](C)C(=O)N[C@@H](CS)C(=O)N[C@@H](CC(=O)O)C(=O)N[C@@H](Cc1ccc(O)cc1)C(=O)N[C@H](C(=O)N[C@@H](Cc1c[nH]cn1)C(=O)N[C@@H](Cc1c[nH]cn1)C(=O)O)[C@@H](C)O)[C@@H](C)O [CY12-RP2] (H-TYLCTACDYTHH-OH; N-terminus and C-terminus assumed)
A375 cellular spheroid
  relative spheroid diameter: significantly diminished with increasing CY12-RP2 concentration
[1]; bioluminescence, vs control
  pulmonary metastases: significantly fewer pulmonary metastases
[1]; ex vivo organ bioluminescence
  size of nodules and frequency of metastases in the lungs: significant reduction
[1]; representative nodule images
  metastatic nodules in the lung: significantly reduced
[2]
  toxic effect on organs (overall): slightly toxic effect
PDPN in A375 cells
  fluorescence and co-localization with PDPN: strong fluorescence and co-localization
A875 cellular spheroids
  relative spheroid diameter: only a high concentration of CY12-RP2 (200 μM) could decrease the diameter
[3]
  apoptotic tumor cells (TUNEL): more apoptotic tumor cells were detected
